From US8431596B2 (Cancer Research Technology Limited, priority 2007, dated 2013)

Target: T1, AXL (human catalytic domain) (Homo sapiens, UniProt P30530)
T1 construct: purchased Upstate Ltd. 14-512
T1 sequence (P30530 473-894): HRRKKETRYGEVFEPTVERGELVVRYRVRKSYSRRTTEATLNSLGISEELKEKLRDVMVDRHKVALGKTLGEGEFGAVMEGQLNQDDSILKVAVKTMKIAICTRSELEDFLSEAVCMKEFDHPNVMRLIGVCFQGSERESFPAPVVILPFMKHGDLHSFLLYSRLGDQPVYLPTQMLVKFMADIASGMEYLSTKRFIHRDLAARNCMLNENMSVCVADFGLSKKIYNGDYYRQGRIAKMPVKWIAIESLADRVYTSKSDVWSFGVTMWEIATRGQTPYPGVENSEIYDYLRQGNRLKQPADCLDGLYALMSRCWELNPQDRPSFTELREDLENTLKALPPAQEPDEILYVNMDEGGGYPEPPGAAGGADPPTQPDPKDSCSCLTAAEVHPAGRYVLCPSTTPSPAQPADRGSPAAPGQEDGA
Assay: AXL (human catalytic domain) Enzyme Activity Assay (IMAP fluorescence polarisation)
Format: biochemical
Settings: further data set (WW-001 through WW-169, XX-001 through XX-469, YY-001 through YY-016, ZZ-001 through ZZ-003); 150 μM ATP
In short: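 Recombinant human AXL isoform 1 (aa473-894; final 15 nM) phosphorylated 100 nM fluorescein-CSK-tide with 150 μM ATP (KM) in HEPES pH 7.0/MgCl2/DTT buffer for 60 min at room temperature. IMAP fluorescence polarisation read after overnight binding; IC50 from 10-point 4-parameter logistic fits.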

SMILES	IC50
CS(=O)(=O)n1cc(-c2cccc3nc(Nc4ccc(OCCN5CCCC5)cc4)nn23)cn1 [XX-276, [5-(1-Methanesulfonyl-1H-pyrazol-4-yl)-[1,2,4]triazolo[1,5-a]pyridin-2-yl]-[4-(2-pyrrolidin-1-yl-ethoxy)-phenyl]-amine]	100 to 1000 nM
CC(=O)Nc1ccc(S(=O)(=O)Nc2ccc(-c3cccc4nc(Nc5ccc(OCCN6CCCC6)cc5)nn34)cc2)cc1 [XX-277]	1000 to 10000 nM
c1ccc(COc2cccc(-c3cccc4nc(Nc5ccc(OCCN6CCCC6)cc5)nn34)c2)cc1 [XX-278]	100 to 1000 nM
CC(C)CS(=O)(=O)n1cc(-c2cccc3nc(Nc4ccc(OCCN5CCCC5)cc4)nn23)cn1 [XX-284]	100 to 1000 nM
O=S(=O)(c1cccc(Cl)c1)n1cc(-c2cccc3nc(Nc4ccc(OCCN5CCCC5)cc4)nn23)cn1 [XX-285]	100 to 1000 nM
Cc1cccc(CS(=O)(=O)n2cc(-c3cccc4nc(Nc5ccc(OCCN6CCCC6)cc5)nn34)cn2)c1 [XX-286]	100 to 1000 nM
O=S(=O)(Cc1cccc(C(F)(F)F)c1)n1cc(-c2cccc3nc(Nc4ccc(OCCN5CCCC5)cc4)nn23)cn1 [XX-287]	100 to 1000 nM
O=S(=O)(Cc1cccc(Cl)c1)n1cc(-c2cccc3nc(Nc4ccc(OCCN5CCCC5)cc4)nn23)cn1 [XX-288]	100 to 1000 nM
COc1cccc(CS(=O)(=O)n2cc(-c3cccc4nc(Nc5ccc(OCCN6CCCC6)cc5)nn34)cn2)c1 [XX-289]	100 to 1000 nM
Cc1cccc(Cn2cc(-c3cccc4nc(Nc5ccc(OCCN6CCCC6)cc5)nn34)cn2)c1 [XX-290]	≤ 100 nM
Cc1ccc(CS(=O)(=O)n2cc(-c3cccc4nc(Nc5ccc(OCCN6CCCC6)cc5)nn34)cn2)cc1 [XX-295]	100 to 1000 nM
CCCCS(=O)(=O)n1cc(-c2cccc3nc(Nc4ccc(OCCN5CCCC5)cc4)nn23)cn1 [XX-296]	1000 to 10000 nM
CCN(CC)CCNc1cc(Nc2nc3cccc(-c4ccc(OC)cc4)n3n2)ccn1 [XX-300]	100 to 1000 nM
C#CCn1cc(-c2cccc3nc(Nc4ccc(OCCN5CCCC5)cc4)nn23)cn1 [XX-302]	100 to 1000 nM
Clc1ccc(Cn2cc(-c3cccc4nc(Nc5ccc(OCCN6CCCC6)cc5)nn34)cn2)cc1 [XX-304]	≤ 100 nM
CC(c1ccccc1)n1cc(-c2cccc3nc(Nc4ccc(OCCN5CCCC5)cc4)nn23)cn1 (centres unmarked) [XX-306]	100 to 1000 nM
OCCn1cc(-c2cccc3nc(Nc4ccc(OCCN5CCCC5)cc4)nn23)cn1 [XX-307, 2-(4-{2-[4-(2-Pyrrolidin-1-yl-ethoxy)-phenylamino]-[1,2,4]triazolo[1,5-a]pyridin-5-yl}-pyrazol-1-yl)-ethanol]	100 to 1000 nM
c1ccc(-c2nnc(-c3cccc(-c4cccc5nc(Nc6ccc(OCCN7CCCC7)cc6)nn45)c3)o2)cc1 [XX-309, {5-[3-(5-Phenyl-[1,3,4]oxadiazol-2-yl)-phenyl]-[1,2,4]triazolo[1,5-a]pyridin-2-yl}-[4-(2-pyrrolidin-1-yl-ethoxy)-phenyl]-amine]	1000 to 10000 nM

SMILES	IC50
CCn1cc(-c2cccc3nc(Nc4ccc(OCCN5CCCC5)cc4)nn23)cn1 [XX-315]	100 to 1000 nM
c1cc(-c2cnn(CC3CC3)c2)n2nc(Nc3ccc(OCCN4CCCC4)cc3)nc2c1 [XX-316]	≤ 100 nM
O=C(Cn1cc(-c2cccc3nc(Nc4ccc(OCCN5CCCC5)cc4)nn23)cn1)c1cccs1 [XX-317]	100 to 1000 nM
CCCn1cc(-c2cccc3nc(Nc4ccc(OCCN5CCCC5)cc4)nn23)cn1 [XX-318]	≤ 100 nM
CCC(CC)Cn1cc(-c2cccc3nc(Nc4ccc(OCCN5CCCC5)cc4)nn23)cn1 [XX-319]	≤ 100 nM
CC[C@H](C)Cn1cc(-c2cccc3nc(Nc4ccc(OCCN5CCCC5)cc4)nn23)cn1 [XX-320]	≤ 100 nM
O=C(Nc1ccc(Cl)cc1)c1cccc(-c2cccc3nc(Nc4ccc(OCCN5CCCC5)cc4)nn23)c1 [XX-321]	1000 to 10000 nM
O=C(Nc1cccc(Cl)c1)c1cccc(-c2cccc3nc(Nc4ccc(OCCN5CCCC5)cc4)nn23)c1 [XX-322]	1000 to 10000 nM
CCCCS(=O)(=O)NCc1cccc(-c2cccc3nc(Nc4ccc(OCCN5CCCC5)cc4)nn23)c1 [XX-324, Butane-1-sulfonic acid 3-{2-[4-(2-pyrrolidin-1-yl-ethoxy)-phenylamino]-[1,2,4]triazolo[1,5-a]pyridin-5-yl}-benzylamide]	1000 to 10000 nM
CC(C)CC(=O)NCc1cccc(-c2cccc3nc(Nc4ccc(OCCN5CCCC5)cc4)nn23)c1 [XX-325, 3-Methyl-N-(3-{2-[4-(2-pyrrolidin-1-yl-ethoxy)-phenylamino]-[1,2,4]triazolo[1,5-a]pyridin-5-yl}-benzyl)-butyramide]	100 to 1000 nM
CCN(CC)CCN(C)c1cc(Nc2nc3cccc(-c4ccc(OC)cc4)n3n2)ccn1 [XX-326]	≤ 100 nM
Nc1nnc(SCCn2cc(-c3cccc4nc(Nc5ccc(OCCN6CCCC6)cc5)nn34)cn2)[nH]1 [XX-327, (5-{1-[2-(5-Amino-4H-[1,2,4]triazol-3-ylsulfanyl)-ethyl]-1H-pyrazol-4-yl}-[1,2,4]triazolo[1,5-a]pyridin-2-yl)-[4-(2-pyrrolidin-1-yl-ethoxy)-phenyl]-amine]	1000 to 10000 nM
C=Cn1cc(-c2cccc3nc(Nc4ccc(OCCN5CCCC5)cc4)nn23)cn1 [XX-328]	100 to 1000 nM
Clc1cccc(COc2cccc(-c3cccc4nc(Nc5ccc(OCCN6CCCC6)cc5)nn34)c2)c1 [XX-330]	1000 to 10000 nM
c1cc(OCc2ccncc2)cc(-c2cccc3nc(Nc4ccc(OCCN5CCCC5)cc4)nn23)c1 [XX-332]	100 to 1000 nM
COc1cccc(COc2cccc(-c3cccc4nc(Nc5ccc(OCCN6CCCC6)cc5)nn34)c2)c1 [XX-335]	100 to 1000 nM
Clc1ccc(COc2cccc(-c3cccc4nc(Nc5ccc(OCCN6CCCC6)cc5)nn34)c2)cc1 [XX-336]	1000 to 10000 nM

The remaining lines, values ahead:

IC50	SMILES
100 to 1000 nM	Cc1ccc(-c2cccc3nc(Nc4ccc(OCCN5CCCC5)cc4)nn23)cc1C [XX-279]
≤ 100 nM	Cc1ccc(-c2cccc3nc(Nc4ccc(OCCN5CCCC5)cc4)nn23)cc1F [XX-280]
1000 to 10000 nM	c1cc(-c2ccc3[nH]ccc3c2)n2nc(Nc3ccc(OCCN4CCCC4)cc3)nc2c1 [XX-281]
100 to 1000 nM	Fc1ccc(-c2cccc3nc(Nc4ccc(OCCN5CCCC5)cc4)nn23)cc1Cl [XX-282]
100 to 1000 nM	CS(=O)(=O)c1cccc(-c2cccc3nc(Nc4ccc(OCCN5CCCC5)cc4)nn23)c1 [XX-283]
100 to 1000 nM	FC(F)(F)c1cc(-c2cccc3nc(Nc4ccc(OCCN5CCCC5)cc4)nn23)ccc1Cl [XX-291]
100 to 1000 nM	Cc1cc(C)cc(-c2cccc3nc(Nc4ccc(OCCN5CCCC5)cc4)nn23)c1 [XX-292]
100 to 1000 nM	c1ccc2oc(-c3cccc4nc(Nc5ccc(OCCN6CCCC6)cc5)nn34)cc2c1 [XX-293]
100 to 1000 nM	c1ccc2sc(-c3cccc4nc(Nc5ccc(OCCN6CCCC6)cc5)nn34)cc2c1 [XX-294]
100 to 1000 nM	Clc1ccc(-c2cccc3nc(Nc4ccc(OCCN5CCCC5)cc4)nn23)cc1Cl [XX-297]
100 to 1000 nM	Clc1cc(Cl)cc(-c2cccc3nc(Nc4ccc(OCCN5CCCC5)cc4)nn23)c1 [XX-298]
100 to 1000 nM	Clc1ccc(-c2cccc3nc(Nc4ccc(OCCN5CCCC5)cc4)nn23)s1 [XX-299]
1000 to 10000 nM	CCCCNC(=O)c1cccc(-c2cccc3nc(Nc4ccc(OCCN5CCCC5)cc4)nn23)c1 [XX-301]
100 to 1000 nM	Cc1cc(Cn2cc(-c3cccc4nc(Nc5ccc(OCCN6CCCC6)cc5)nn34)cn2)no1 [XX-305]
1000 to 10000 nM	NCc1cccc(-c2cccc3nc(Nc4ccc(OCCN5CCCC5)cc4)nn23)c1 [XX-308, [5-(3-Aminomethyl-phenyl)-[1,2,4]triazolo[1,5-a]pyridin-2-yl]-[4-(2-pyrrolidin-1-yl-ethoxy)-phenyl]-amine]
100 to 1000 nM	O=C(c1cccc(-c2cccc3nc(Nc4ccc(OCCN5CCCC5)cc4)nn23)c1)c1ccc2c(c1)OCO2 [XX-310, Benzo[1,3]dioxol-5-yl-(3-{2-[4-(2-pyrrolidin-1-yl-ethoxy)-phenylamino]-[1,2,4]triazolo[1,5-a]pyridin-5-yl}-phenyl)-methanone]
100 to 1000 nM	Cc1cc(-c2ccc3c(c2)OCCO3)n2nc(Nc3ccc(OCCN4CCCC4)cc3)nc2c1 [XX-311, [5-(2,3-Dihydro-benzo[1,4]dioxin-6-yl)-7-methyl-[1,2,4]triazolo[1,5-a]pyridin-2-yl]-[4-(2-pyrrolidin-1-yl-ethoxy)-phenyl]-amine]
≤ 100 nM	c1cc(-c2ccc3c(c2)OCCO3)n2nc(Nc3ccc(OCCCN4CCCC4)cc3)nc2c1 [XX-312]
1000 to 10000 nM	COc1ccc2nc(Nc3ccc(OCCN4CCCC4)cc3)nn2c1-c1ccc2c(c1)OCCO2 [XX-323, [5-(2,3-Dihydro-benzo[1,4]dioxin-6-yl)-6-methoxy-[1,2,4]triazolo[1,5-a]pyridin-2-yl]-[4-(2-pyrrolidin-1-yl-ethoxy)-phenyl]-amine]
100 to 1000 nM	CCN(CC)CCCOc1ccc(Nc2nc3cccc(-c4ccc5c(c4)OCCO5)n3n2)cc1 [XX-329]
1000 to 10000 nM	CC(C)Oc1cccc(-c2cccc3nc(Nc4ccc(OCCN5CCCC5)cc4)nn23)c1 [XX-331]
1000 to 10000 nM	COc1ccc(OC)c(-c2cccc3nc(Nc4ccc(OCCN5CCCC5)cc4)nn23)c1 [XX-333]
100 to 1000 nM	COc1cc(-c2cccc3nc(Nc4ccc(OCCN5CCCC5)cc4)nn23)ccc1F [XX-334]
100 to 1000 nM	CCOc1cccc(-c2cccc3nc(Nc4ccc(OCCN5CCCC5)cc4)nn23)c1 [XX-337]
